{"source": "patent US12636260B2", "about": "“Application of α-asarone in preparation of medicine for preventing or treating hemorrhagic stroke” (CHENGDU XINRUI TAIKANG TECHNOLOGY CO., LTD., priority 2021, dated 2026)", "key": {"[1]": {"tested_on": "mouse bone marrow cells", "assay": "Mouse bone marrow micronucleus test by flow cytometry", "format": "in vivo", "conditions": "mice", "procedure": "Experimental grouping and administration: The animals were randomly divided into five groups with 10 […] in each group: blank control group (blank group, administrated blank emulsion with the same volume as the high-dose group of α-asarone), cyclophosphamide group (CTX group, 40 mg/kg), low dose of α-asarone emulsion injection group (prepared by preparation embodiment 7, 100 mg/kg/day, ASA-L group), medium dose of α-asarone emulsion injection group (prepared by preparation embodiment 7, 150 mg/kg/day, ASA-M group), and high dose of α-asarone emulsion injection group (prepared from preparation embodiment 7, 200 mg/kg/day, ASA-H group).\nAll drugs were administrated through the tail vein for continuous 4 days except for the single injection of the positive control drug cyclophosphamide (CTX) 24 hours before sampling. After 24 hours of the last administration, the mice were sacrificed to separate both femurs. The femoral bone marrow cells were washed with PBS and filtered by 300 mesh nylon cell sieves to prepare a single-cell suspension. The suspension was centrifuged at 1650 rpm for 5 min, and the cell concentration was adjusted to 5×10^6 cells/mL by PBS resuspension. For each sample, 100 μL of the cell suspension was incubated with 400 μL of the PIPES-PI solution (10 mL of PIPES solution (concentration of 3.5 mg/mL)+0.5 mg PI+0.01 mL Triton X-100 (concentration of 0.1%)), gently blown and mixed, at 4° C. in the dark for 30 min and detected by a flow cytometry. […] The higher the value, the stronger the genotoxicity."}, "[2]": {"tested_on": "SAH rats", "assay": "Short-term neurological function of SAH rats (Garcia score, beam balance test, bleeding score)", "format": "in vivo, rat", "conditions": "for Beam balance score / Garcia score: SAH model, 24 hours after modeling", "procedure": "(§1) Experimental grouping: At 2 h after endovascular perforation or collagenase VII injection, Zea Longa score was used to evaluate the neurological function of rats. Successful model rats were randomly divided into groups for administration.\n(§2) All groups were administrated through the tail vein injection except for group N administrated intraperitoneally.\nThe rats were fasted for 12 hours before operation, and were anesthetized with 4% isoflurane, and kept anesthetized with 2% isoflurane. The animals were fixed in the supine position with the body temperature maintained at about 37° C. A traditional skin incision of the neck was performed along the midline. The muscle and fascia were separated along the medial margin of the sternocleidomastoid muscle to expose the right side, then the common carotid artery (CCA), external carotid artery (ECA) and internal carotid artery (ICA) were bluntly separated with disposal lines placed at CCA proximal end, ICA and ECA for use. The CCA proximal end and the ECA were ligated, and the ICA was temporarily clamped with an arterial clip, and then a small hole was poked with a needle at about 4 mm from the bifurcation at the CCA. A nylon suture was introduced into the CCA from the hole and advanced through the ICA after releasing the arterial clip, and the suture was inserted intracranially. […] The suture moved forward for roughly 2 mm to perforate the artery followed by instant withdraw, and then the suture was completely removed and the ICA was ligated. Finally, the incision was cleaned with normal saline and sutured. The sham group conducted the same procedure as the model group except for the perforation. After awakening from anesthesia, the animals were raised normally.\nThe SAH severity was grading after rat's euthanasia, i.e., completing the evaluation of short-term neurological function. The score was determined by the amount of subarachnoid hemorrhage on the surface of basal cistern and brain tissue which was divided into six parts by the Willis ring composed of basilar artery, anterior cerebral artery, internal carotid artery, posterior cerebral artery and posterior communicating artery. Each part was graded from 0 to 3 points according to the amount of subarachnoid blood clots, i.e., 0 points: no subarachnoid blood; 1 point: a small amount of subarachnoid blood; 2 points: moderate amount of blood clots with recognizable arteries; 3 points: blood clots cover all arteries in the area. All 6 part scores were added up for a total of 18 points. According to the final score, SAH hemorrhage severity could be divided into mild subarachnoid hemorrhage (0 to 7 points), moderate subarachnoid hemorrhage (8 to 12 points), and severe subarachnoid hemorrhage (13 to 18 points). The moderate to severe SAH models were selected for statistical analysis (score≥8 points).\n(§3) According to Zea Longa's neurological function score, the rats were scored 2 hours after the operation when they were awake from anesthesia. Successful model rats with a score of 1 to 3 points were enrolled in the group: • 0 points: no neurological deficits with normal activity; • 1 point: inability to fully extend the contralateral forepaw; • 2 points: the animal appears to turn in circles when crawling; • 3 points: the animal tends to lean to the hemiplegic side; • 4 points: the animal cannot walk spontaneously or loses consciousness. 1.4 Assessment of Short-Term Neurological Function\nThe neurological function of rats was comprehensively evaluated with Garcia score and beam balance test 24 hours after modeling. The criteria of Garcia score are shown in Table 1, which evaluates the movement, sensation, climbing and limb symmetry of the rats with the score range of 3 to 18 points. The lower the score, the more severe the neurological injury. The criteria of the beam balance test are shown in Table 2, which evaluated the proprioception and body coordination of rats with the score range of 0 to 6 points. […]"}, "[3]": {"tested_on": "ICH rats", "assay": "Short-term neurological function of ICH rats (Garcia score, beam balance test)", "format": "in vivo, rat", "conditions": "for Beam balance score / Garcia score: ICH model, 24 hours after modeling", "procedure": "as §1, §2\nThe rats were fasted for 12 hours before operation, and were anesthetized with 4% isoflurane, and kept anesthetized with 2% isoflurane. The animals were fixed in the prone position in a stereotaxic apparatus with the body temperature maintained at about 37° C. A traditional skin incision of the head was prepared along the midline. According to the stereotaxic atlas of the rat brain translated by Zhuge Qichao (George Paxinos, Charles Watson, Paxinos, Watson, & Zhuge Qichao. The Rat Brain in Stereotaxic Coordinates [M]. People's Medical Publishing House, 2005), the right caudate nucleus of the rat was determined as 0.0 mm anterior, 3.0 mm lateral to the bregma, and 5.5 mm ventral to the cortical surface. After labeling, we drilled an open window in the skull, and 1 μL of 0.5 U collagenase VII was slowly injected for 5 minutes with a microinjector. After the injection, the needle was stagnated for 8 minutes and slowly withdrawn. Then the scalp was sutured after the burr hole of skull was sealed with a sterile bone wax, and the rats were returned to the cage for normal feeding. The sham group conducted the same procedure as the model group, but received an equal volume of physiological saline into the caudate nucleus.\nas §3\nThe neurological function of rats was comprehensively evaluated with Garcia score and beam balance test 24 hours after modeling. The criteria of Garcia score are shown in Table 1, which evaluates the movement, sensation, climbing and limb symmetry of the rats with the score range of 3 to 18 points. The lower the score, the more severe the neurological injury. The criteria of the beam balance test are shown in Table 2, which evaluated the proprioception and body coordination of rats with the score range of 0 to 6 points. The higher the score, the more severe the neurological injury. Scoring was done independently by a technician blinded to the modeling and drug administration."}, "[4]": {"tested_on": "SAH rats", "assay": "Secondary epilepsy in SAH rats (Racine score, seizures)", "format": "in vivo, rat", "conditions": "within 24 hours after SAH, group N, nimodipine injection 1 mg/kg intraperitoneally", "procedure": "The experimental materials, grouping, modeling method and administration protocol were the same as those in the effect embodiment 1, and the seizures of rats in each group were observed within 24 hours after SAH."}, "[5]": {"tested_on": "SAH rats", "assay": "Long-term survival rate of SAH rats", "format": "in vivo, rat", "conditions": "nimodipine injection 1 mg/kg intraperitoneally, 2 hours after modeling then once a day for 14 days", "procedure": "The experimental materials, grouping and modeling methods were the same as those in effect embodiment 1. The rats were immediately administrated 2 hours after SAH modeling according to the grouping administration protocol and continued to be administrated once a day for 14 days thereafter, and the survival of the rats was observed and recorded for 14 days. The mortality rate within 24 hours in group S was as high as 53.8%."}, "[6]": {"conditions": "CTX group, 40 mg/kg, single injection 24 hours before sampling"}, "[7]": {"conditions": "group B, β-asarone emulsion injection 20 mg/kg tail vein"}, "[8]": {"conditions": "group V, vinpocetine injection 2 mg/kg tail vein"}, "[9]": {"conditions": "group N, nimodipine injection 1 mg/kg intraperitoneally"}}}
{"compound": "O=P1(N(CCCl)CCCl)NCCCO1", "note": "(centres unmarked) [CTX, cyclophosphamide, reference compound]", "values": [{"measurement": "MNPCE", "setting": "[1]; [6]", "value": "0.86 ± 0.25"}, {"measurement": "PCE", "setting": "[1]; [6]", "value": "36.46 ± 8.01"}, {"measurement": "fMNPCE (‰)", "setting": "[1]; [6]", "value": "24.36 ± 8.03 ‰"}, {"measurement": "micronucleus rate compared to the blank emulsion group", "setting": "[1]; cyclophosphamide 40 mg/kg (P<0.01)", "value": "significantly higher"}]}
{"compound": "C/C=C\\c1cc(OC)c(OC)cc1OC", "note": "[β-asarone, reference compound]", "values": [{"measurement": "effect against the neurological impairment", "setting": "[2]; SAH model rats, group B, β-asarone emulsion injection 20 mg/kg", "value": "no obvious effect"}, {"measurement": "Beam balance score", "setting": "[2]; [7]", "value": 3.70}, {"measurement": "Garcia score", "setting": "[2]; [7]", "value": 10.51}, {"measurement": "effect against the neurological impairment", "setting": "[3]; ICH model rats, group B, β-asarone emulsion injection 20 mg/kg", "value": "no obvious effect"}, {"measurement": "Beam balance score", "setting": "[3]; [7]", "value": 3.76}, {"measurement": "Garcia score", "setting": "[3]; [7]", "value": 9.12}]}
{"compound": "CCOC(=O)C1=C[C@]2(CC)CCCN3CCc4c(n1c1ccccc41)[C@@H]32", "note": "[vinpocetine, reference compound]", "values": [{"measurement": "Beam balance score", "setting": "[2]; [8]", "value": 3.54}, {"measurement": "Garcia score", "setting": "[2]; [8]", "value": 10.30}, {"measurement": "Beam balance score", "setting": "[3]; [8]", "value": 3.27}, {"measurement": "Garcia score", "setting": "[3]; [8]", "value": 10.56}]}
{"compound": "COCCOC(=O)C1=C(C)NC(C)=C(C(=O)OC(C)C)C1c1cccc([N+](=O)[O-])c1", "note": "(centres unmarked) [nimodipine, reference compound]", "values": [{"measurement": "Beam balance score", "setting": "[2]; [9]", "value": 3.01}, {"measurement": "Garcia score", "setting": "[2]; [9]", "value": 11.33}, {"measurement": "Beam balance score", "setting": "[3]; [9]", "value": 3.89}, {"measurement": "Garcia score", "setting": "[3]; [9]", "value": 8.92}, {"measurement": "Clonic seizures (%)", "setting": "[4]", "value": 18.8, "unit": "%"}, {"measurement": "Racine score", "setting": "[4]", "value": "0.81 ± 1.56"}, {"measurement": "Tonic seizures (%)", "setting": "[4]", "value": 6.2, "unit": "%"}, {"measurement": "Survival rate", "setting": "[5]; Day 14, group N", "value": 58.3, "unit": "%"}, {"measurement": "24-hour mortality rate", "setting": "[5]; group N", "value": 25.0, "unit": "%"}]}
